What was measured:
[1] = Inhibition of rat air pouch group2 sPLA2 at 10 uM by liquid scintillation counting
[2] = Inhibition of human synovial group2 sPLA2 at 10 uM by liquid scintillation counting
[3] = Inhibition of Naja naja venom group1 sPLA2 at 10 uM by liquid scintillation counting
[4] = Inhibition of bee venom group3 sPLA2 at 10 uM by liquid scintillation counting

## C[C@H]1CC[C@@]23C[C@]2(C)CCC[C@@H]3[C@@]1(C)CCC1=CC[C@H](C2=CC(=O)O[C@H]2O)OC1 [cacospongionolide]
[1]
  inhibition: 21.8%
[2]
  inhibition: 90.7%
[3]
  IC50: 3.5 µM

## C=C1CCC[C@H]2[C@](C)(CCC3=CCC(C4=CC(=O)OC4O)OC3)[C@H](C)CC[C@]12C (stereo partly drawn) [CACOSPONGIONOLIDE B]
[4]
  IC50: 35.4 µM
[1]
  inhibition: 36.9%
[2]
  inhibition: 86.7%

## CC1=C(CC/C(C)=C/CCC2=CC[C@H](C3=CC(=O)O[C@H]3O)O[C@H]2O)C(C)(C)CCC1 [5-Hydroxy-4-{(R)-6-hydroxy-5-[(E)-4-methyl-6-(2,6,6-trimethyl-cyclohex-1-enyl)-hex-3-enyl]-3,6-dihydro-2H-pyran-2-yl}-5H-furan-2-one]
[4]
  IC50: 62.5 µM
[1]
  inhibition: 38.4%
[2]
  inhibition: 93.2%
[3]
  IC50: 17 µM

## CC1=CCC[C@@H]2[C@@](C)(CCC3=CC[C@H](C4=CC(=O)O[C@H]4O)OC3)[C@@H](C)CC[C@@]12C [cacospongionolide E]
[4]
  IC50: 94.8 µM
[1]
  inhibition: 65.1%
[2]
  inhibition: 96.7%
